# Measured values taken from patent EP0067897A1, “A pharmaceutical composition for use in raised intracranial pressure” (Tanabe Seiyaku Co., Ltd., priority 1981, dated 1982).
# Experiments:
# [1] = tested on: Male SD-strain rats; assay: Effect on intracranial pressure (cerebrospinal fluid pressure in the cisterna magna) in urethane-anesthetized rats after oral administration; assay type: in vivo; details: 8 mg/kg orally
# Method: Male SD-strain rats weighing […] (each group consisiting of 5 rats) were fasted for about 20 hours, and anesthetized with urethane. 1-(4-acetamido-2-methoxyphenoxy)-3-[4-(3-fluorophenyl)piperazino]-2-propanol (free base) was administered orally to the rats at a dose of 8 mg/kg. Intracranial pressure (i.e., cerebrospinal fluid pressure in the cisterna magna) was continuously monitored via a cannula inserted in the cisterna magna. The cannula was connected to a transducer, and recordings were made on graph paper. The effect of said test compound on the intracranial pressure was estimated in terms of the increase or decrease in intracranial pressure, which was calculated in accordance with the following formula: [formula]
# [2] = Acute toxicity after oral administration; details: mouse, in vivo; oral administration to male mice, estimated a week after administration
# Excerpt: Unlike those of the hypertonic solutions of glycerol or mannitol, the therapeutic effect of the propanol derivative (I) of the present invention is not ascribable to the cerebral dehydrating effect. The propanol derivative (I) may be used for the treatment or prophylaxis of increased intracranial pressure during and after brain surgical operation. Moreover, the propanol derivative (I) may be used for improving impaired consciousness, nervous disturbance and subjective symptoms (e.g., headache, nausea, vomiting) which are attributed to the cerebral diseases such as those mentioned hereinbefore. Further, whereas it is known that cerebral edema induces an increase in intracranial pressure and increased intracranial pressure serves to cause a build-up of edema which in turn impairs cerebral circulation, the propanol derivative (I) can interrupt such vicious cycle of cerebral diseases because of its potent intracranial pressure-lowering effect and ameliorate the cerebral circulatory impairment. The toxicity of the propanol derivative (I) of the invention is low.
smiles,measurement,setting,value
COc1cc(NC(C)=O)ccc1OCC(O)CN1CCN(c2cccc(F)c2)CC1 (stereo not shown) [1-(4-acetamido-2-methoxyphenoxy)-3-[4-(3-fluorophenyl)piperazino]-2-propanol],Changes in intracranial pressure (%),"[1]; 20 minutes after administration, pre-dose pressure = 100 (70 ± 3.1 mm H2O), 5 rats",85.4%
same,Changes in intracranial pressure (%),"[1]; 60 minutes after administration, pre-dose pressure = 100",83.5%
same,Changes in intracranial pressure (%),"[1]; 120 minutes after administration, pre-dose pressure = 100",77.7%
same,Changes in intracranial pressure (%),"[1]; 180 minutes after administration, pre-dose pressure = 100",76.5%
same,Changes in intracranial pressure (%),"[1]; 240 minutes after administration, pre-dose pressure = 100",75.6%
same,Changes in intracranial pressure (%),"[1]; 300 minutes after administration, pre-dose pressure = 100",77.9%
same,LD50 at 168 h,[2],~1500 mg/kg
